IC50 and Ki data for 17 compounds are collected here from ChEMBL document CHEMBL1909046, “DrugMatrix in vitro pharmacology data”.

Molecules are shown by their SMILES.

One data set concerns the target D(1A) dopamine receptor (Homo sapiens, UniProt P21728). Put plainly: DRUGMATRIX: Dopamine D1 radioligand binding (ligand: [3H] SCH-23390). The conditions noted are these: Not Active = under 50% inhibition at 10 µM. Type of data set: cell membranes, CHO, Membrane.
In the next data set the target is T1, Leukotriene C4 synthase (Cavia porcellus, UniProt A6XA80).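 Also: enzyme inhibition assay of leukotriene C4 synthase, using LTA4 as the substrate; in other assays of this panel Not Active means under 50% inhibition at 10 µM.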
T1 sequence (A6XA80 whole entry): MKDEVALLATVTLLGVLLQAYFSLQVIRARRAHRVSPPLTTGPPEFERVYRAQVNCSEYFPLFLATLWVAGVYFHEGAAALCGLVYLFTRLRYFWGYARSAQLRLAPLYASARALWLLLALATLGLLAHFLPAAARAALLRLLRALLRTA
Type of data set: tissue-based, Lung.

Another data set addresses T2, D(4) dopamine receptor (Homo sapiens, UniProt P21917).
T2 sequence (P21917 whole entry): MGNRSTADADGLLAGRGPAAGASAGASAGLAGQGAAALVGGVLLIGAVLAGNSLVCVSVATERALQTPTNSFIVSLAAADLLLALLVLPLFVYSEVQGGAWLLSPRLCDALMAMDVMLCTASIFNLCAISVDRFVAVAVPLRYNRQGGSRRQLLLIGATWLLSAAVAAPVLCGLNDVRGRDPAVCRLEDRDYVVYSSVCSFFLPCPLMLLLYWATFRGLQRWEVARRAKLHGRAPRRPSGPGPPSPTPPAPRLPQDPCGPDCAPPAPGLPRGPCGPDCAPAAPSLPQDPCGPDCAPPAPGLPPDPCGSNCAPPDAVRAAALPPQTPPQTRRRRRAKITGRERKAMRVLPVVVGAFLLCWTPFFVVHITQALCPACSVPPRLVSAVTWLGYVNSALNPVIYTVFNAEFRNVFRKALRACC
Put plainly: DRUGMATRIX: Dopamine D4.2 radioligand binding (ligand: [3H] Spiperone). To be noted: cho-k1; Not Active = under 50% inhibition at 10 µM. In kind it is cell membranes, CHO-K1, Membrane.

Data set [1] addresses C-C chemokine receptor type 5 (Homo sapiens, UniProt P51681). Type of data set: cell membranes, Membrane. The conditions noted are these: hek293.
The next data set has as its target T3, Cytochrome P450 1A2 (Homo sapiens, UniProt P05177). Also: in other assays of this panel Not Active means under 50% inhibition at 10 µM.
T3 sequence (P05177 whole entry): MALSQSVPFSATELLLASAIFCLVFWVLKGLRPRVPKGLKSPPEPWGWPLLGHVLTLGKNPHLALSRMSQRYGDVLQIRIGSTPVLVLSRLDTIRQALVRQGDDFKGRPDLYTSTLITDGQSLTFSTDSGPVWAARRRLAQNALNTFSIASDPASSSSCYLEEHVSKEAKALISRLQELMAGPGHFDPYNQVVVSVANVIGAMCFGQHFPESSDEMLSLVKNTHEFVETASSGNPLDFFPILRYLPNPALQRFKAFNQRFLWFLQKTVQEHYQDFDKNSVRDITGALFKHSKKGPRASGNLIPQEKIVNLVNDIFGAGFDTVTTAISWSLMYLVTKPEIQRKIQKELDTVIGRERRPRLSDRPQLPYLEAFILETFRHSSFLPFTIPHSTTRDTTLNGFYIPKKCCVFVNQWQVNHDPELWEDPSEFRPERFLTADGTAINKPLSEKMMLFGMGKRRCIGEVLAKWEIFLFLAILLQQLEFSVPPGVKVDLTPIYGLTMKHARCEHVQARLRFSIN
To be noted: bti-tn-5b1-4.

The target in data set [2] is Beta-3 adrenergic receptor (Homo sapiens, UniProt P13945). Put plainly: DRUGMATRIX: Adrenergic beta3 radioligand binding (ligand: [125I] Cyanopindolol). Type of data set: cell membranes, HEK293, Membrane. To be noted: hek293; Not Active = under 50% inhibition at 10 µM.
Beta-3 adrenergic receptor, sequence (P13945 whole entry): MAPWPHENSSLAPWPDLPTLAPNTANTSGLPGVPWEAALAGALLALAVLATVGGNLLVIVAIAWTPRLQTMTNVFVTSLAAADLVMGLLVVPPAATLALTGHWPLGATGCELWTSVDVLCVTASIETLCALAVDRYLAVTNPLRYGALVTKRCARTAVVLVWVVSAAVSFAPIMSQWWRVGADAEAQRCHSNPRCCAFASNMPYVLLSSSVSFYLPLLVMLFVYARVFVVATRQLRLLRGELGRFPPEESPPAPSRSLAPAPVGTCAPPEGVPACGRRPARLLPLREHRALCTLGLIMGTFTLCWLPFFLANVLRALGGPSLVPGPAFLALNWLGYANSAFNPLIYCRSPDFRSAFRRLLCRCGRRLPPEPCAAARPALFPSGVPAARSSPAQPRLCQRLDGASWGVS
For data set [3], the target named is Voltage-gated inwardly rectifying potassium channel KCNH2 (Homo sapiens, UniProt Q12809). The conditions noted are these: hek293. Also: in other assays of this panel Not Active means under 50% inhibition at 10 µM.
Voltage-gated inwardly rectifying potassium channel KCNH2, sequence (Q12809 whole entry): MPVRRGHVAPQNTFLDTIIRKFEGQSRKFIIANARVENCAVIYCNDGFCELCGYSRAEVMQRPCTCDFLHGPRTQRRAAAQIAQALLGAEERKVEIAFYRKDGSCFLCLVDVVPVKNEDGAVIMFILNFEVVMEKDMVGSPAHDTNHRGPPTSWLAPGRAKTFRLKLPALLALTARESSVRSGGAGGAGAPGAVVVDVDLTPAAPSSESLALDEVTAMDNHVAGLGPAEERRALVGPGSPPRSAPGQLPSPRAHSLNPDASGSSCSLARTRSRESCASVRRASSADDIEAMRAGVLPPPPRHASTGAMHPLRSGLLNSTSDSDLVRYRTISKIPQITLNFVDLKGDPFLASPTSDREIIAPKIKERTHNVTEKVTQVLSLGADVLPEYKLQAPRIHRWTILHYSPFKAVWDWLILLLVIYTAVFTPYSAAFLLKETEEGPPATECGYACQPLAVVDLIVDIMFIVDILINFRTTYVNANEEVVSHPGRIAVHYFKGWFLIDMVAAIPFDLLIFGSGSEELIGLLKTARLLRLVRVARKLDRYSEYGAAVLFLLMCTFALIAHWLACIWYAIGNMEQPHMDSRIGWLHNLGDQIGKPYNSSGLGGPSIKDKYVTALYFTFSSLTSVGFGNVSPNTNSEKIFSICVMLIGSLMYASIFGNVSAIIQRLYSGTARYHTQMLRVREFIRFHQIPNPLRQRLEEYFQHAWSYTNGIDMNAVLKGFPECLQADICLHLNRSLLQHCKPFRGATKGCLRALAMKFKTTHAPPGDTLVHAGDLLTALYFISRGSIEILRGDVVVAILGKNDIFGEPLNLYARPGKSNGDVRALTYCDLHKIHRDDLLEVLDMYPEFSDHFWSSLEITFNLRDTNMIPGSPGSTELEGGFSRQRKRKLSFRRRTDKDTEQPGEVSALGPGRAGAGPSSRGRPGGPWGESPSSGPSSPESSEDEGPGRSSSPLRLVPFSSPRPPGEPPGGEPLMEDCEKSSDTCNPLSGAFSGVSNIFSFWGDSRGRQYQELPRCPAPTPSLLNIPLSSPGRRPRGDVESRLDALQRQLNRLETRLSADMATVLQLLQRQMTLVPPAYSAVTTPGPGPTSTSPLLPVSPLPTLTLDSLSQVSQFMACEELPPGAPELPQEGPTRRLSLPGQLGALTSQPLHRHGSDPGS

D(1A) dopamine receptor, sequence (P21728 whole entry): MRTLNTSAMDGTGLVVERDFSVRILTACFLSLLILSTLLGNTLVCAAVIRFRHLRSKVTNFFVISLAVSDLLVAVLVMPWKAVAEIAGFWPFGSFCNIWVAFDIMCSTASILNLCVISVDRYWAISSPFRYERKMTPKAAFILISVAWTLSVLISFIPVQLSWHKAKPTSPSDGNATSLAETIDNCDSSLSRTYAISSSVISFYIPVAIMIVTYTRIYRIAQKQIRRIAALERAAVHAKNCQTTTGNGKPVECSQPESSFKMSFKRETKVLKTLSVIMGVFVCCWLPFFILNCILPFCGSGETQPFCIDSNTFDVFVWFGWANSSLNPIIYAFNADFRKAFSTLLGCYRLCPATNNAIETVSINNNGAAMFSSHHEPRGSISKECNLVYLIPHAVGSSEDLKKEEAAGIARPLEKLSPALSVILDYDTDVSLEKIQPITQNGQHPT
C-C chemokine receptor type 5, sequence (P51681 whole entry): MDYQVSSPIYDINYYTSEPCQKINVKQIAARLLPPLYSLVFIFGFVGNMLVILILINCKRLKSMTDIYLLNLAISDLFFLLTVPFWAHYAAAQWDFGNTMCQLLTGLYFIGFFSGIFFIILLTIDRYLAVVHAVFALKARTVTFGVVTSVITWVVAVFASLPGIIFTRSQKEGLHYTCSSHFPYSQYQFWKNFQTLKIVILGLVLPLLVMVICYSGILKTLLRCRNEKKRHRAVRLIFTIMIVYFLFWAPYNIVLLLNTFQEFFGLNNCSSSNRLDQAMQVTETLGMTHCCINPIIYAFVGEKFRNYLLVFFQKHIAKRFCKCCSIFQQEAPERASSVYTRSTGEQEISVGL

With `O=C(O)CCCc1ccc(N(CCCl)CCCl)cc1` [CHLORAMBUCIL], the IC50 result (on D(1A) dopamine receptor (cho); on Leukotriene C4 synthase; at D(4) dopamine receptor; in data set [1]; on Cytochrome P450 1A2; in data set [2]) was “Not Active” in each case. In addition, in data set [3], the IC50 entry is given as “Not Active”. Also, the Ki entry (at Cytochrome P450 1A2; in data set [3]) was “Not Active” each time.

Take `CC1(C)O[C@@H]2C[C@H]3[C@@H]4CCC5=CC(=O)CC[C@]5(C)[C@@]4(F)[C@@H](O)C[C@]3(C)[C@]2(C(=O)CCl)O1` [HALCINONIDE]: the IC50 result (at D(1A) dopamine receptor (cho); at Leukotriene C4 synthase; on D(4) dopamine receptor; in data set [1]; against Cytochrome P450 1A2; in data set [2]) was “Not Active” each time. Moreover, in data set [3], the 50% inhibitory concentration (IC50) entry was “Not Active”. In addition, the Ki entry (on Cytochrome P450 1A2; in data set [3]) was “Not Active” throughout.

On to `NC(=O)N1c2ccccc2CCc2ccccc21`, for which the IC50 result (at D(1A) dopamine receptor (cho); on Leukotriene C4 synthase; at D(4) dopamine receptor; in data set [1]; at Cytochrome P450 1A2; in data set [2]) was “Not Active” each time. In addition, the IC50 entry in data set [3] is “Not Active”. The inhibition constant (Ki) result (on Cytochrome P450 1A2; in data set [3]) was “Not Active” throughout.

For `CC(C)C(Br)C(=O)NC(N)=O` (centres undefined) [BROMISOVALUM], the IC50 result (on D(1A) dopamine receptor (cho); against Leukotriene C4 synthase; at D(4) dopamine receptor; in data set [1]; at Cytochrome P450 1A2; in data set [2]) was “Not Active” each time. Further, the IC50 result in data set [3] is reported as “Not Active”. Moreover, the Ki result (on Cytochrome P450 1A2; in data set [3]) was “Not Active” in each case.

`COc1ccc(C[C@H]2NC[C@H](O)[C@H]2OC(C)=O)cc1` [ANISOMYCIN]: the IC50 entry (at D(1A) dopamine receptor (cho); against Leukotriene C4 synthase; on D(4) dopamine receptor; in data set [1]; at Cytochrome P450 1A2; in data set [2]) was “Not Active” throughout. In data set [3], the IC50 result is reported as “Not Active”. Also, the Ki entry (on D(1A) dopamine receptor (cho); on Leukotriene C4 synthase; at D(4) dopamine receptor; in data set [1]; at Cytochrome P450 1A2; in data set [2]) was “Not Active” throughout. Further, in data set [3], the Ki result is listed as “Not Active”.

`C[C@]12CCC(=O)C=C1CC[C@@H]1[C@@H]2CC[C@@]2(C)[C@H]1CC[C@]2(C)O` [METHYLTESTOSTERONE]: the IC50 result (on D(1A) dopamine receptor (cho); on Leukotriene C4 synthase; on D(4) dopamine receptor; in data set [1]; on Cytochrome P450 1A2; in data set [2]) was “Not Active” each time. Moreover, the IC50 result in data set [3] was “Not Active”. Also, the Ki entry (at Cytochrome P450 1A2; in data set [3]) was “Not Active” each time.

`O=C1CC[C@@H](N2C(=O)c3ccccc3C2=O)C(=O)N1`: the concentration for half-maximal inhibition (IC50) entry (on D(1A) dopamine receptor (cho); on Leukotriene C4 synthase; on D(4) dopamine receptor; in data set [1]; at Cytochrome P450 1A2; in data set [2]) was “Not Active” throughout. Moreover, in data set [3], the IC50 result is “Not Active”. The Ki result (at Cytochrome P450 1A2; in data set [3]) was “Not Active” in each case.

In the case of `Cc1c(O)c(=O)ccn1C` [DEFERIPRONE], the IC50 result (on D(1A) dopamine receptor (cho); against Leukotriene C4 synthase; on D(4) dopamine receptor; in data set [1]; at Cytochrome P450 1A2; in data set [2]) was “Not Active” throughout. The IC50 result in data set [3] is on record as “Not Active”. For the same compound, the Ki result (at Cytochrome P450 1A2; in data set [3]) was “Not Active” in each case.

For `CCOc1ccc(NC(C)=O)cc1` [PHENACETIN], the IC50 entry (on D(1A) dopamine receptor (cho); on Leukotriene C4 synthase; at D(4) dopamine receptor; in data set [1]; at Cytochrome P450 1A2; in data set [2]) was “Not Active” throughout. Also, the IC50 entry in data set [3] was “Not Active”. The Ki result (on Cytochrome P450 1A2; in data set [3]) was “Not Active” in each case.

Consider `NC1=NC(=O)C(c2ccccc2)O1` (centres undefined) [PEMOLINE], for which the IC50 entry (on D(1A) dopamine receptor (cho); on Leukotriene C4 synthase; on D(4) dopamine receptor; in data set [1]; on Cytochrome P450 1A2; in data set [2]) was “Not Active” in each case. Further, in data set [3], the IC50 entry is given as “Not Active”. The Ki result (at Cytochrome P450 1A2; in data set [3]) was “Not Active” in each case.

Regarding `CCn1cc(C(=O)O)c(=O)c2cc(F)c(N3CCNCC3)cc21` [NORFLOXACIN], the IC50 entry (at D(1A) dopamine receptor (cho); against Leukotriene C4 synthase; at D(4) dopamine receptor; in data set [1]; against Cytochrome P450 1A2; in data set [2]) was “Not Active” throughout. Also, the IC50 entry in data set [3] was “Not Active”. Further, the Ki result (on Cytochrome P450 1A2; in data set [3]) was “Not Active” each time.

Consider `Clc1cccc(Cl)c1NC1=NCCN1` [CLONIDINE], for which the IC50 result (at D(1A) dopamine receptor (cho); on Leukotriene C4 synthase; on D(4) dopamine receptor; in data set [1]; on Cytochrome P450 1A2; in data set [2]) was “Not Active” in each case. Moreover, the IC50 entry in data set [3] is “Not Active”. Also, the Ki result (at Cytochrome P450 1A2; in data set [3]) was “Not Active” throughout.

Consider `C=C(C)C1(O)OC(=O)C=C1OC` (centres undefined) [PENICILLIC ACID], for which the IC50 entry (at D(1A) dopamine receptor (cho); against Leukotriene C4 synthase; at D(4) dopamine receptor; in data set [1]; against Cytochrome P450 1A2; in data set [2]) was “Not Active” each time. Moreover, in data set [3], the IC50 entry is reported as “Not Active”. For the same compound, the Ki result (on Cytochrome P450 1A2; in data set [3]) was “Not Active” each time.

Turning to `C[C@H](CS)C(=O)N1CCC[C@H]1C(=O)O` [CAPTOPRIL], the IC50 result (on D(1A) dopamine receptor (cho); on Leukotriene C4 synthase; on D(4) dopamine receptor; in data set [1]; against Cytochrome P450 1A2; in data set [2]) was “Not Active” in each case. Also, the IC50 result in data set [3] is listed as “Not Active”. Further, the Ki entry (at Cytochrome P450 1A2; in data set [3]) was “Not Active” each time.

Turning to `C[C@H]1O[C@@H](O[C@H]2[C@@H](O)C[C@H](O[C@H]3[C@@H](O)C[C@H](O[C@H]4CC[C@@]5(C)[C@H](CC[C@@H]6[C@@H]5C[C@@H](O)[C@]5(C)[C@@H](C7=CC(=O)OC7)CC[C@]65O)C4)O[C@@H]3C)O[C@@H]2C)C[C@H](O)[C@@H]1O` [DIGOXIN], the half-maximal inhibitory concentration (IC50) result (at D(1A) dopamine receptor (cho); against Leukotriene C4 synthase; at D(4) dopamine receptor; in data set [1]; against Cytochrome P450 1A2; in data set [2]) was “Not Active” each time. For the same compound, in data set [3], the 50% inhibitory concentration (IC50) entry was “Not Active”. The Ki result (on Cytochrome P450 1A2; in data set [3]) was “Not Active” throughout.

With `CN(C)C(=O)Oc1cc(OC(=O)N(C)C)cc(C(O)CNC(C)(C)C)c1` (centres undefined) [BAMBUTEROL], the IC50 result (at D(1A) dopamine receptor (cho); on Leukotriene C4 synthase; at D(4) dopamine receptor; in data set [1]; on Cytochrome P450 1A2; in data set [2]) was “Not Active” throughout. For the same compound, the IC50 entry in data set [3] is listed as “Not Active”. Besides, the Ki entry (on Cytochrome P450 1A2; in data set [3]) was “Not Active” each time.

In the case of `CC(C)[C@H]1C(=O)N2CCC[C@H]2[C@]2(O)O[C@](NC(=O)[C@@H]3C=C4c5cccc6[nH]cc(c56)C[C@H]4N(C)C3)(C(C)C)C(=O)N12` [ERGOCORNINE], the IC50 at D(1A) dopamine receptor (read-out: IC50) was 0.294 µM; on Leukotriene C4 synthase it was “Not Active”; at D(4) dopamine receptor, “Not Active”; in data set [1] it was “Not Active”; against Cytochrome P450 1A2, “Not Active”; in data set [2] it was “Not Active”. Also, in data set [3], the IC50 entry is given as “Not Active”. Further, the Ki was 0.147 µM at D(1A) dopamine receptor (read-out: Ki), “Not Active” on Cytochrome P450 1A2 and “Not Active” in data set [3].
